Earlier results on 1 compound are cited in patent US20080058642A1, “METHOD FOR DETECTING CORONARY ENDOTHELIAL DYSFUNCTION AND EARLY ATHEROSCLEROSIS” (BOARD OF REGENTS OF THE UNIVERSITY OF TEXAS SYSTEM, priority 2006, published 2008).

The target of this series is T1, ETA-receptor (Homo sapiens, UniProt P25101).
T1 construct: host or cells: in vivo, heart failure trial
T1 sequence (P25101 21-427): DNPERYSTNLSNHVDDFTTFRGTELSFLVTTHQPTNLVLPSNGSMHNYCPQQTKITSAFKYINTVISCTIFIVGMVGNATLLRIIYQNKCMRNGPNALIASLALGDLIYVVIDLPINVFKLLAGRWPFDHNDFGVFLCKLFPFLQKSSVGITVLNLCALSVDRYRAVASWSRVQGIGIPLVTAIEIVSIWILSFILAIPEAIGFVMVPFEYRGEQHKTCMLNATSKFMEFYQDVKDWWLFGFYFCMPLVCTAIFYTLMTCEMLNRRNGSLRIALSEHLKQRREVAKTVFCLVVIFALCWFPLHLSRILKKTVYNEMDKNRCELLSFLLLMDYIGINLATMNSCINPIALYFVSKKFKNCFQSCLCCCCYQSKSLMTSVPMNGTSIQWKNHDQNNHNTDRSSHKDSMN
The conditions noted are these: recent randomized trial; cited from earlier work.

As for `COc1cc(OC)nc(O[C@H](C(=O)O)C(OC)(c2ccccc2)c2ccccc2)n1` [Darusentan™], the “benefit in heart failure” value is recorded as “no benefit”.
